# In PubChem BioAssay AID1963450 (Molecular Pharmacology Branch, DTP, NCI, 2024):
# “And” between values parts separate entries of the source, which are not always exact repeats. Equal entries are not always repeated.
# Test system: 556581-035-R-J1-PDC complex spheroid growth
# Assay: Anticancer human tumor 556581-035-R-J1-PDC patient-derived ovarian carcinoma cell line growth inhibition [Asc]
# Conditions: for viability, T/C: stronger effect = lower value
# Method in brief: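 Complex solid-tumor spheroids incorporating human endothelial and mesenchymal stem cells received single agents or combinations over half-log dilution ranges anchored to clinical Cmax.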
# [1] = curve of first compound, second compound 0.1 µM
# [2] = curve of first compound, second compound 0.316 µM
# [3] = curve of first compound, second compound 1 µM
# 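Note: spheroids exposed to agents for 7 days before viability read.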
structure (smiles),measurement,setting,value
Cc1nc(N2CCC3(CC2)COC(C)C3N)c(CO)nc1Sc1ccnc(N)c1Cl (configuration not stated) + Cc1c(S(C)(=O)=O)c(-c2cc(F)cc(N3CCN(c4ccc(NS(=O)(=O)c5ccc(NC(CCN6CCC(C(=O)OCCCP(=O)(O)O)CC6)CSc6ccccc6)c(S(=O)(=O)C(F)(F)F)c5)cc4)CC3)c2)c(-c2ccc(Cl)cc2)n1C(C)C,IC50,[1],544 nM
same,IC50,[2],389 nM
same,IC50,[3],266 nM
same,IC50,"curve of first compound, second compound 3.16 µM",97 nM
same,IC50,"curve of first compound, second compound 10 µM",14.1 nM
same,"viability, T/C","second compound 0.1 µM, first compound 0.00949 µM",81.7%
same,"viability, T/C","second compound 0.1 µM, first compound 0.03 µM",90.2%
same,"viability, T/C","second compound 0.1 µM, first compound 0.0949 µM",62.4%
same,"viability, T/C","second compound 0.1 µM, first compound 0.3 µM",57.5%
same,"viability, T/C","second compound 0.1 µM, first compound 0.949 µM",47%
same,"viability, T/C","second compound 0.1 µM, first compound 3 µM",36.2%
same,"viability, T/C","second compound 0.316 µM, first compound 0.00949 µM",72.5%
same,"viability, T/C","second compound 0.316 µM, first compound 0.03 µM",64.4%
same,"viability, T/C","second compound 0.316 µM, first compound 0.0949 µM",54.9%
same,"viability, T/C","second compound 0.316 µM, first compound 0.3 µM",53.8%
same,"viability, T/C","second compound 0.316 µM, first compound 0.949 µM",47.6%
same,"viability, T/C","second compound 0.316 µM, first compound 3 µM",32.8%
same,"viability, T/C","second compound 1 µM, first compound 0.00949 µM",62%
same,"viability, T/C","second compound 1 µM, first compound 0.03 µM",63.8%
same,"viability, T/C","second compound 1 µM, first compound 0.0949 µM",59.5%
same,"viability, T/C","second compound 1 µM, first compound 0.3 µM",49.1%
same,"viability, T/C","second compound 1 µM, first compound 0.949 µM",31.2%
same,"viability, T/C","second compound 1 µM, first compound 3 µM",30.6%
same,"viability, T/C","second compound 3.16 µM, first compound 0.00949 µM",55.5%
same,"viability, T/C","second compound 3.16 µM, first compound 0.03 µM",60.5%
same,"viability, T/C","second compound 3.16 µM, first compound 0.0949 µM",50.3%
same,"viability, T/C","second compound 3.16 µM, first compound 0.3 µM",35.7%
same,"viability, T/C","second compound 3.16 µM, first compound 0.949 µM",39.9%
same,"viability, T/C","second compound 3.16 µM, first compound 3 µM",29.8%
same,"viability, T/C","second compound 10 µM, first compound 0.00949 µM",50.8%
same,"viability, T/C","second compound 10 µM, first compound 0.03 µM",48.7%
same,"viability, T/C","second compound 10 µM, first compound 0.0949 µM",43.7%
same,"viability, T/C","second compound 10 µM, first compound 0.3 µM",30.7%
same,"viability, T/C","second compound 10 µM, first compound 0.949 µM",37.4%
same,"viability, T/C","second compound 10 µM, first compound 3 µM",22.3%
CCN1CCN(Cc2ccc(Nc3ncc(F)c(-c4cc(F)c5nc(C)n(C(C)C)c5c4)n3)nc2)CC1,"viability, T/C",compound 0.00316 µM,105% and 78% and 90.7%
same,"viability, T/C",compound 0.01 µM,84.4% and 87.4% and 107%
same,"viability, T/C",compound 0.0316 µM,88.9% and 97.7% and 107%
same,"viability, T/C",compound 0.1 µM,85.2% and 84.8% and 106%
same,"viability, T/C",compound 0.316 µM,76.2% and 64.5% and 69.5%
same,"viability, T/C",compound 1 µM,76.5% and 76.4% and 66.7%
same,IC50,curve of compound,> 1000 nM
COc1c(OCCCN2CCOCC2)ccc2c3n(c(=NC(=O)c4cnc(N)nc4)nc12)CCN3 + CNC(C)C(=O)NC1CN(S(=O)(=O)c2cccc(S(=O)(=O)N3CCC4CCC(C(=O)NC(c5ccccc5)c5ccccc5)N4C(=O)C(NC(=O)C(C)NC)C3)c2)CCC2CCC(C(=O)NC(c3ccccc3)c3ccccc3)N2C1=O,IC50,"curve of first compound, second compound 0.01 µM",17.2 nM
same,IC50,"curve of first compound, second compound 0.0316 µM",22 nM
same,IC50,[1],9.5 nM
same,IC50,[2],14.5 nM
same,IC50,[3],9.84 nM
same,"viability, T/C","second compound 0.01 µM, first compound 0.00316 µM",70.3%
same,"viability, T/C","second compound 0.01 µM, first compound 0.01 µM",58.8%
same,"viability, T/C","second compound 0.01 µM, first compound 0.0316 µM",37.7%
same,"viability, T/C","second compound 0.01 µM, first compound 0.1 µM",35.7%
same,"viability, T/C","second compound 0.01 µM, first compound 0.316 µM",19.1%
same,"viability, T/C","second compound 0.01 µM, first compound 1 µM",12.2%
same,"viability, T/C","second compound 0.0316 µM, first compound 0.00316 µM",64.2%
same,"viability, T/C","second compound 0.0316 µM, first compound 0.01 µM",58.2%
same,"viability, T/C","second compound 0.0316 µM, first compound 0.0316 µM",45.4%
same,"viability, T/C","second compound 0.0316 µM, first compound 0.1 µM",35.5%
same,"viability, T/C","second compound 0.0316 µM, first compound 0.316 µM",22.4%
same,"viability, T/C","second compound 0.0316 µM, first compound 1 µM",9.75%
same,"viability, T/C","second compound 0.1 µM, first compound 0.00316 µM",58.6%
same,"viability, T/C","second compound 0.1 µM, first compound 0.01 µM",49.9%
same,"viability, T/C","second compound 0.1 µM, first compound 0.0316 µM",38.5%
same,"viability, T/C","second compound 0.1 µM, first compound 0.1 µM",31.6%
same,"viability, T/C","second compound 0.1 µM, first compound 0.316 µM",19.3%
same,"viability, T/C","second compound 0.1 µM, first compound 1 µM",10.5%
same,"viability, T/C","second compound 0.316 µM, first compound 0.00316 µM",64.6%
same,"viability, T/C","second compound 0.316 µM, first compound 0.01 µM",53.1%
same,"viability, T/C","second compound 0.316 µM, first compound 0.0316 µM",42.4%
same,"viability, T/C","second compound 0.316 µM, first compound 0.1 µM",27.5%
same,"viability, T/C","second compound 0.316 µM, first compound 0.316 µM",16.4%
same,"viability, T/C","second compound 0.316 µM, first compound 1 µM",9.55%
same,"viability, T/C","second compound 1 µM, first compound 0.00316 µM",60.7%
same,"viability, T/C","second compound 1 µM, first compound 0.01 µM",47.1%
same,"viability, T/C","second compound 1 µM, first compound 0.0316 µM",40.9%
same,"viability, T/C","second compound 1 µM, first compound 0.1 µM",27.3%
same,"viability, T/C","second compound 1 µM, first compound 0.316 µM",14.9%
same,"viability, T/C","second compound 1 µM, first compound 1 µM",7.78%
Cn1ncnc1[C@H]1c2n[nH]c(=O)c3cc(F)cc(c23)N[C@@H]1c1ccc(F)cc1 + CCN1C(C(=O)NC23CCC(C(=O)O)(CC2)CC3)C(c2cccc(Cl)c2F)C2(C(=O)Nc3cc(Cl)ccc32)C12CCCCC2,IC50,"curve of first compound, second compound 0.03 µM",> 100 nM
same,IC50,"curve of first compound, second compound 0.0949 µM",> 100 nM
same,IC50,"curve of first compound, second compound 0.3 µM",> 100 nM
same,IC50,"curve of first compound, second compound 0.949 µM",> 100 nM
same,IC50,"curve of first compound, second compound 3 µM",> 100 nM
same,"viability, T/C","second compound 0.03 µM, first compound 0.000316 µM",110%
same,"viability, T/C","second compound 0.03 µM, first compound 0.001 µM",102%
same,"viability, T/C","second compound 0.03 µM, first compound 0.00316 µM",94.4%
same,"viability, T/C","second compound 0.03 µM, first compound 0.01 µM",87.7%
same,"viability, T/C","second compound 0.03 µM, first compound 0.0316 µM",94.3%
same,"viability, T/C","second compound 0.03 µM, first compound 0.1 µM",95.2%
same,"viability, T/C","second compound 0.0949 µM, first compound 0.000316 µM",105%
same,"viability, T/C","second compound 0.0949 µM, first compound 0.001 µM",100%
same,"viability, T/C","second compound 0.0949 µM, first compound 0.00316 µM",116%
same,"viability, T/C","second compound 0.0949 µM, first compound 0.01 µM",96.1%
same,"viability, T/C","second compound 0.0949 µM, first compound 0.0316 µM",94.9%
same,"viability, T/C","second compound 0.0949 µM, first compound 0.1 µM",92.3%
same,"viability, T/C","second compound 0.3 µM, first compound 0.000316 µM",102%
same,"viability, T/C","second compound 0.3 µM, first compound 0.001 µM",130%
same,"viability, T/C","second compound 0.3 µM, first compound 0.00316 µM",97.2%
same,"viability, T/C","second compound 0.3 µM, first compound 0.01 µM",107%
same,"viability, T/C","second compound 0.3 µM, first compound 0.0316 µM",87.1%
same,"viability, T/C","second compound 0.3 µM, first compound 0.1 µM",83.4%
same,"viability, T/C","second compound 0.949 µM, first compound 0.000316 µM",109%
same,"viability, T/C","second compound 0.949 µM, first compound 0.001 µM",93.8%
same,"viability, T/C","second compound 0.949 µM, first compound 0.00316 µM",102%
same,"viability, T/C","second compound 0.949 µM, first compound 0.01 µM",96.6%
same,"viability, T/C","second compound 0.949 µM, first compound 0.0316 µM",90.6%
same,"viability, T/C","second compound 0.949 µM, first compound 0.1 µM",92.7%
same,"viability, T/C","second compound 3 µM, first compound 0.000316 µM",97%
same,"viability, T/C","second compound 3 µM, first compound 0.001 µM",94.8%
same,"viability, T/C","second compound 3 µM, first compound 0.00316 µM",78.7%
same,"viability, T/C","second compound 3 µM, first compound 0.01 µM",87%
same,"viability, T/C","second compound 3 µM, first compound 0.0316 µM",84%
same,"viability, T/C","second compound 3 µM, first compound 0.1 µM",86.8%
